Reference: patent US10941158B2, “Pyrazole ACC inhibitors and uses thereof” (Gilead Apollo, LLC, priority 2015, dated 2021)
Converted amounts (≈) assume the structure as drawn. Like-named read-outs stand apart in the source and are kept apart here.

Tests used:
[1] = biological target: human (hACC2) ACC2 (Homo sapiens, UniProt O00763); assay: In vitro Acetyl-CoA Carboxylase (ACC) inhibition assay (ADP-Glo), hACC2; format: biochemical
Description: The detailed procedure is as follows. […] 10 μL ADP glo reagent was added. […] 20 μL kinase detection reagent was added.
“NA” stands for “not assayed.”

[2] = tested on: C. albicans ATCC 90028; assay: Anti-Fungal (Candida) Activity Assay, broth microtiter MIC; format: cell-based; conditions: read-out: MIC C. albicans ATCC 90028
How it was run: (§1)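 Strains plated from frozen stock onto Sabouraud dextrose agar, 35 °C, 24 h; colonies suspended directly in RPMI 1640/MOPS, density from standard curves; CLSI M27-A3 microdilution; 48 h read, visual vs growth control.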

[3] = tested on: C. krusei ATCC 6258; assay: as above; format: cell-based; conditions: Pichia kudriavzevii, read-out: MIC C. krusei ATCC 6258
How it was run: as §1

[4] = tested on: C. parapsilosis ATCC 22019; assay: as above; format: cell-based; conditions: Lodderomyces parapsilosis, read-out: MIC C. parapsilosis ATCC 22019
How it was run: as §1

[5] = tested on: Botrtyis cinerea (Bc); assay: Growth inhibition assay of fungal pathogens; format: cell-based; conditions: 48 h, read-out: Concentration at 90% Inhibition Bc
How it was run: (§2)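 Liquid-culture assay in which test compounds are applied at three final concentrations (50, 10, 2 ppm or 2, 0.4, 0.08 ppm). Inoculum levels follow 48 h growth curves for each fungus. Growth is monitored by OD600 and by eye, and the 48 h values give % inhibition against DMSO.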

[6] = tested on: Collectotrichum graminicola (Cg); assay: Growth inhibition assay of fungal pathogens; format: cell-based; conditions: 48 h, read-out: Concentration at 90% Inhibition Cg
How it was run: (§3)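 Compounds in DMSO tested at final 50, 10, 2 ppm or 2, 0.4, 0.08 ppm. Spores in 17% V8 medium, or 1.5 mm mycelial plugs in ¼ PDB for R. solani, incubated with compound. OD600 and visual ratings at 48 h versus 2% DMSO control gave percent growth inhibition.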

[7] = tested on: Diplodia maydis (Dm); assay: Growth inhibition assay of fungal pathogens; format: cell-based; conditions: Stenocarpella maydis, 48 h, read-out: Concentration at 90% Inhibition Dm
How it was run: as §2

[8] = tested on: Fusarium moniliforme (Fm); assay: Growth inhibition assay of fungal pathogens; format: cell-based; conditions: for IC90: Fusarium verticillioides, 48 h, read-out: Concentration at 90% Inhibition Fm
How it was run: as §2

[9] = tested on: Fusarium virguliforme (Fv); assay: Growth inhibition assay of fungal pathogens; format: cell-based; conditions: 48 h
How it was run: as §3

[10] = tested on: Phytophthora capsici (Pc); assay: Growth inhibition assay of fungal pathogens; format: cell-based; conditions: for IC90: Phytophthora capsici, read-out: Concentration at 90% Inhibition Pc
How it was run: as §3

[11] = tested on: Rhizoctonia solani (Rs); assay: Growth inhibition assay of fungal pathogens; format: cell-based; conditions: 48 h, read-out: Concentration at 90% Inhibition Rs
How it was run: as §2

[12] = tested on: Septoria tritici (St); assay: Growth inhibition assay of fungal pathogens; format: cell-based; conditions: for IC90: Zymoseptoria tritici, read-out: Concentration at 90% Inhibition St
How it was run: as §3

[13] = biological target: fungal (fACC2) ACC2 (UniProt Q00955); conditions: read-out: fACC2 IC50; fungal ACC2, ADP-Glo
[14] = ATCC90028, 3 replicates, MIC recorded at 48 h
[15] = ATCC6258, 3 replicates, MIC recorded at 48 h
[16] = ATCC22019, 3 replicates, MIC recorded at 48 h
[17] = Table 4a, 48 hours, read-out: Concentration at 90% Inhibition Fv
[18] = Table 4b, 48 hours, read-out: Concentration at 90% Inhibition Fv
[19] = read-out: Concentration at 90% Inhibition Fv, Table 4b, 48 hours

Sequence of human (hACC2) ACC2 (O00763 whole entry): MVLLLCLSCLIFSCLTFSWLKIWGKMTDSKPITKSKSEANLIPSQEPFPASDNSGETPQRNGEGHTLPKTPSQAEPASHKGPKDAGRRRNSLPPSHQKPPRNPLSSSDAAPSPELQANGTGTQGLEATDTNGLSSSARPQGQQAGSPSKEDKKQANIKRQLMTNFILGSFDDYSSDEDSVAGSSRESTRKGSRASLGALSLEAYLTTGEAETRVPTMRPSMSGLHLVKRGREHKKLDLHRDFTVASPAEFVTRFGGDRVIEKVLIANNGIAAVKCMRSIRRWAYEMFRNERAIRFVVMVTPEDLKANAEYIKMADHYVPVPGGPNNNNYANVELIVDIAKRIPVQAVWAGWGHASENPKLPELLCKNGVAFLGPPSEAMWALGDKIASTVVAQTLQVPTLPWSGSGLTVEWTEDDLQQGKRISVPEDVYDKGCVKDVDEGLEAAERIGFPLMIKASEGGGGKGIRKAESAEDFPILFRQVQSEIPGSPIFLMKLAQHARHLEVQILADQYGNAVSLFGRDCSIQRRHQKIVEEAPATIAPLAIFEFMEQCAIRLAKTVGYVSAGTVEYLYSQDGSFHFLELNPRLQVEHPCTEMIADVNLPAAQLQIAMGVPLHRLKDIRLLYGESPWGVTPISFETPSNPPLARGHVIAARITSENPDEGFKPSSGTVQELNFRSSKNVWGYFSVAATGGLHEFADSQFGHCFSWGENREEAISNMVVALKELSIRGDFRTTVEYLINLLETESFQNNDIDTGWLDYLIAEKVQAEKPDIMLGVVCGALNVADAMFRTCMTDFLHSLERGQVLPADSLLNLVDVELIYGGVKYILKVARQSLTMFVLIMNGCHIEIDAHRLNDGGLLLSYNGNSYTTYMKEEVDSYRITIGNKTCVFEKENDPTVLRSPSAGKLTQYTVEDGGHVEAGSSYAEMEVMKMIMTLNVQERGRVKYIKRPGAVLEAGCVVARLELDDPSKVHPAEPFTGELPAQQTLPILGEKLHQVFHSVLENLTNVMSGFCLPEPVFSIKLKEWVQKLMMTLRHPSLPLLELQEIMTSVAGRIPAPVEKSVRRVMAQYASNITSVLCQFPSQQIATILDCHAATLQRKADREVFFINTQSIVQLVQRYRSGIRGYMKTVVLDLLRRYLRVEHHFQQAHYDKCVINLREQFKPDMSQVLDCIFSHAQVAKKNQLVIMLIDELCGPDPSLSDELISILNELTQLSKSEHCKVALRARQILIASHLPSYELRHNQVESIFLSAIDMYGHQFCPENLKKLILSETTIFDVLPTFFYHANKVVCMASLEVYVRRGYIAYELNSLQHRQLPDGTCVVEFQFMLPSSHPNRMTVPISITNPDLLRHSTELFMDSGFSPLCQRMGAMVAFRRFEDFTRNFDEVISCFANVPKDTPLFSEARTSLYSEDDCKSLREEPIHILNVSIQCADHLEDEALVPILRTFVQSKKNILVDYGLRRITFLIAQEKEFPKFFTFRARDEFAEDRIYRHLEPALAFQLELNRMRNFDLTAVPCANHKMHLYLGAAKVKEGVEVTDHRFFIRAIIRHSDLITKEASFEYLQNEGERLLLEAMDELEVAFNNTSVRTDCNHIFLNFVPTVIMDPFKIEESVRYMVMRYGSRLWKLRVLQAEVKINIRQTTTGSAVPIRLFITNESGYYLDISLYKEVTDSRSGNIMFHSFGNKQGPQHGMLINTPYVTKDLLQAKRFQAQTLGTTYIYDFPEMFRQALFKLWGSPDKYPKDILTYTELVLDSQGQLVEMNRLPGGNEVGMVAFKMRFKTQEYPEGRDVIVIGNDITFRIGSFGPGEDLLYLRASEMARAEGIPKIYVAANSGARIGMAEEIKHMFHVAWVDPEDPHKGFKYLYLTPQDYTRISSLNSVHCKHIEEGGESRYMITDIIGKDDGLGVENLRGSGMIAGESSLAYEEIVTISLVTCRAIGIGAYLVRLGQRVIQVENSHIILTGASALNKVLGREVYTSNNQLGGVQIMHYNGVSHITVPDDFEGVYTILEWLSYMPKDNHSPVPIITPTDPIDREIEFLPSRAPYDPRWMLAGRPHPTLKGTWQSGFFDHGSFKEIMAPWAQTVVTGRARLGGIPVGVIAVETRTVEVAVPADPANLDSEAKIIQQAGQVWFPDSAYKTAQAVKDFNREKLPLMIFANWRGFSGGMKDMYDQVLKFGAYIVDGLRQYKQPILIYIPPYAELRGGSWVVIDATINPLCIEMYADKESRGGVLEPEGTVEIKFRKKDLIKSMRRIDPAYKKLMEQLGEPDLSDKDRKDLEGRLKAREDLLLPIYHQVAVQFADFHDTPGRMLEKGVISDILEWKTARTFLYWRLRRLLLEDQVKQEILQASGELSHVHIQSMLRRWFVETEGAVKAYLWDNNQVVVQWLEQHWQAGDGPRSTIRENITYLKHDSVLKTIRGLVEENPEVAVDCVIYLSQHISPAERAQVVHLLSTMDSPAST
Sequence of fungal (fACC2) ACC2 (Q00955 whole entry): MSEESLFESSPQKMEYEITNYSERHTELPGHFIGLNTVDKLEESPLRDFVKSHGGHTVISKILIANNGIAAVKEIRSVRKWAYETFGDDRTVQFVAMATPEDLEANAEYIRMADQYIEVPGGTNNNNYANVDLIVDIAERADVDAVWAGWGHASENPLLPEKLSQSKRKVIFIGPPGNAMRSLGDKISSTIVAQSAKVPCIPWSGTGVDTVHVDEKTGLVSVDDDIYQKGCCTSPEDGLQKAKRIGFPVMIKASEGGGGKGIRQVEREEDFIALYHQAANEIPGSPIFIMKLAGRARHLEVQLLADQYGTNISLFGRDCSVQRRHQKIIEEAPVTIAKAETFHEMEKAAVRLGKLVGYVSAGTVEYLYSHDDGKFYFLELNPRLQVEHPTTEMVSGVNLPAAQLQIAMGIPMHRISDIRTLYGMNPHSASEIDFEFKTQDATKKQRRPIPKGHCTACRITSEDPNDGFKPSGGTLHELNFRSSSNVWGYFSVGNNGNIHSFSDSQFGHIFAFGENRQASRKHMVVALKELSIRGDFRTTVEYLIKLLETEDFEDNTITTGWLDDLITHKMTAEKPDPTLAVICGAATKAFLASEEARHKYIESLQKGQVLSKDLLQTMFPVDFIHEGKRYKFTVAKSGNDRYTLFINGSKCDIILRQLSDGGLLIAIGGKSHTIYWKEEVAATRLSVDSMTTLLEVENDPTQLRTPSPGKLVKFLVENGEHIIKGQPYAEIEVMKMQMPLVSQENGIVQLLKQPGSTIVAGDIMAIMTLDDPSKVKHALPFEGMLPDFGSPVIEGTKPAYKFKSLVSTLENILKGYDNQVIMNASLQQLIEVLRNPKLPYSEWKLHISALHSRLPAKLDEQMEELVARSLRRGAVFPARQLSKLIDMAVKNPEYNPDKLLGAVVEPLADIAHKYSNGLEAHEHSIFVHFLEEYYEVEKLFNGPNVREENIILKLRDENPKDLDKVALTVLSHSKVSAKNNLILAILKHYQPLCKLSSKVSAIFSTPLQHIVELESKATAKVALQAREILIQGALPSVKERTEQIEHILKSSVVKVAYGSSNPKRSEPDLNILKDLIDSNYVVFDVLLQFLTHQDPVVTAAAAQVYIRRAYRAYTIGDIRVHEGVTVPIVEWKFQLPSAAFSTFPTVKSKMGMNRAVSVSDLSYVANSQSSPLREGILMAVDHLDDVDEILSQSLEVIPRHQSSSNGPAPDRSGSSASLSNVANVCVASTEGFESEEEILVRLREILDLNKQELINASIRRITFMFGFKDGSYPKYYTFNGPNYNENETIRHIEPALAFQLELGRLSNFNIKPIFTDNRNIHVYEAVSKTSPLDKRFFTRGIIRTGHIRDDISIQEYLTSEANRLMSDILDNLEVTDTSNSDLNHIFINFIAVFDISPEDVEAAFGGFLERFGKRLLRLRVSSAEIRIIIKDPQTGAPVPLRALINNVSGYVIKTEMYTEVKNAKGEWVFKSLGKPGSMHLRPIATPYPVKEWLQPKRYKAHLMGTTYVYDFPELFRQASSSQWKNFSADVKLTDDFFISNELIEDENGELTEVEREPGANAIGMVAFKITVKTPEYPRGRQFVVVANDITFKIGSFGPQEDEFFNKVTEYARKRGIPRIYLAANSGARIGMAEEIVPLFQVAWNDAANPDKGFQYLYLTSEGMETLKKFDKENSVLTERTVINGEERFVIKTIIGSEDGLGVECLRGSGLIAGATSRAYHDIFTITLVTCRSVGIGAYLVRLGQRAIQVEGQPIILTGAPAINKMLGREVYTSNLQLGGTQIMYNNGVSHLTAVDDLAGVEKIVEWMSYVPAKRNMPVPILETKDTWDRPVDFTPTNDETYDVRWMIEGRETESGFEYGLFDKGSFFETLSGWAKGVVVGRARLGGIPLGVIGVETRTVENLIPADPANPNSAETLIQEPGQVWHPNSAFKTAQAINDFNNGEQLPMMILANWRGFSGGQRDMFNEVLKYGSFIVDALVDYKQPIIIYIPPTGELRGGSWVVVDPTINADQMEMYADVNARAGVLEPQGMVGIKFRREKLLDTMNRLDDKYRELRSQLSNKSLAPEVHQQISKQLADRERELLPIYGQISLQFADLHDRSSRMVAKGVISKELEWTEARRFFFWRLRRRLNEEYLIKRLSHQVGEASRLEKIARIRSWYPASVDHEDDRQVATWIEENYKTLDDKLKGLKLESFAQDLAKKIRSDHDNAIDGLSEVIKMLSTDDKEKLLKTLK

| Structure (SMILES) | IC50 [1] [nM] | MIC [2, 14] [µg/mL] | MIC [3, 15] [µg/mL] | MIC [4, 16] [µg/mL] | IC90 ([5]; Table 4a) [µg/mL] | IC90 ([5]; Table 4b) [µg/mL] | IC90 ([6]; Table 4a) [µg/mL] | IC90 ([6]; Table 4b) [µg/mL] | IC90 ([7]; Table 4a) [µg/mL] | IC90 ([7]; Table 4b) [µg/mL] | IC90 ([8]; Table 4b, 48 hours) [µg/mL] | IC90 [9, 18] [µg/mL] | IC90 ([11]; Table 4a) [µg/mL] | IC90 ([11]; Table 4b) [µg/mL] | IC50 [13] [nM] | IC90 ([10]; Table 4b, 48 hours) [µg/mL] | IC90 ([12]; Table 4b, 48 hours) [µg/mL] | further results |
| --- | --- | --- | --- | --- | --- | --- | --- | --- | --- | --- | --- | --- | --- | --- | --- | --- | --- | --- |
| COc1ccc(F)cc1[C@H](Cn1c(=O)n(C(C)(C)C(=O)N2CCCC2)c(=O)c2c(C)c(-n3cccn3)sc21)OCC(C)(C)O [Compound I-42, (R)-1-(2-(5-fluoro-2-methoxyphenyl)-2-(2-hydroxy-2-methylpropoxy)ethyl)-5-methyl-3-(2-methyl-1-oxo-1-(pyrrolidin-1-yl)propan-2-yl)-6-(1H-pyrazol-1-yl)thieno[2,3-d]pyrimidine-2,4(1H,3H)-dione] | 3 to 10 | 2.1 to 4 (≈ 3.35 to 6.37 µM) | 2.1 to 4 (≈ 3.35 to 6.37 µM) | > 4.1 | > 50 | 10 (≈ 15.9 µM) | > 50 | 10 (≈ 15.9 µM) | > 50 | 10 (≈ 15.9 µM) | 0.4 (≈ 0.637 µM) | 10 (≈ 15.9 µM) | 10 (≈ 15.9 µM) | 2 (≈ 3.19 µM) | 0.6 to 3 |  |  | IC90 ([8]; Table 4a, 48 hours): 0.4 µg/mL (≈ 0.637 µM); IC90 [9, 17]: > 50 µg/mL; IC90 ([10]; Table 4a, 48 hours): > 50 µg/mL; Concentration at 90% Inhibition Pc ([10]; Table 4b, 48 hours): D (“D” provided a compound concentration of >50 ppm at 90% inhibition of fungal pathogens); Concentration at 90% Inhibition St ([12]; Table 4b, 48 hours): D (“D” provided a compound concentration of >50 ppm at 90% inhibition of fungal pathogens); IC90 ([12]; Table 4a, 48 hours): > 50 µg/mL |
| COCCO[C@@H](Cn1c(=O)n(C(C)(C)C(=O)NC(C)C)c(=O)c2c(C)c(-n3cccn3)sc21)c1cc(F)ccc1OC [Compound I-43, (R)-2-(I-(2-(5-fluoro-2-methoxyphenyl)-2-(2-methoxy-ethoxy)ethyl)-5-methyl-2,4-dioxo-6-(1H-pyrazol-1-yl)-1,4-dihydrothieno[2,3-d]pyrimidin-3(2H)-yl)-N-isopropyl-2-methylpropanamide] | 10 to 40 |  |  |  | > 50 | 10 (≈ 16.6 µM) | > 50 | > 50 | > 50 | 10 (≈ 16.6 µM) |  |  | > 50 | 10 (≈ 16.6 µM) | 0.6 to 3 |  |  | MIC ([2]; ATCC90028, 48 h): 1.1 to 2 µg/mL (≈ 1.83 to 3.32 µM); MIC ([3]; ATCC6258, 48 h): 0.25 to 1 µg/mL (≈ 0.415 to 1.66 µM); MIC ([4]; ATCC22019, 48 h): 2.1 to 4 µg/mL (≈ 3.49 to 6.65 µM); IC90 [8]: 2 µg/mL (≈ 3.32 µM); Concentration at 90% Inhibition Fm ([8]; Table 4b, 48 hours): B (“B” provided a compound concentration of 2.0 ppm at 90% inhibition of fungal pathogens); IC90 ([9]; read-out: Concentration at 90% Inhibition Fv, Table 4a, 48 hours): 2 µg/mL (≈ 3.32 µM); IC90 [9, 19]: 2 µg/mL (≈ 3.32 µM); IC90 ([10]; 48 h, Table 4a): > 50 µg/mL; IC90 ([10]; 48 h, Table 4b): > 50 µg/mL; IC90 ([12]; 48 h, Table 4a): > 50 µg/mL; IC90 ([12]; 48 h, Table 4b): > 50 µg/mL |
| COc1ccc(F)cc1[C@H](Cn1c(=O)n(C(C)(C)C(=O)N2CC=CC2)c(=O)c2c(C)c(-n3cccn3)sc21)OC1CCOCC1 [Compound I-45, (R)-3-(1-(2,5-dihydro-1H-pyrrol-1-yl)-2-methyl-1-oxopropan-2-yl)-1-(2-(5-fluoro-2-methoxyphenyl)-2-((tetrahydro-2H-pyran-4-yl)oxy)ethyl)-5-methyl-6-(1H-pyrazol-1-yl)thieno[2,3-d]pyrimidine-2,4(1H,3H)-dione] | 10 to 40 | 2.1 to 4 (≈ 3.29 to 6.27 µM) | 0.25 to 1 (≈ 0.392 to 1.57 µM) | 2.1 to 4 (≈ 3.29 to 6.27 µM) | > 50 | 10 (≈ 15.7 µM) | 2 (≈ 3.14 µM) | 2 (≈ 3.14 µM) | > 50 | 10 (≈ 15.7 µM) | 2 (≈ 3.14 µM) | 10 (≈ 15.7 µM) | 2 (≈ 3.14 µM) | 2 (≈ 3.14 µM) | 0.6 to 3 |  |  | IC90 ([8]; Table 4a, 48 hours): 2 µg/mL (≈ 3.14 µM); IC90 [9, 17]: > 50 µg/mL; IC90 ([10]; Table 4a, 48 hours): > 50 µg/mL; Concentration at 90% Inhibition Pc ([10]; Table 4b, 48 hours): D (“D” provided a compound concentration of >50 ppm at 90% inhibition of fungal pathogens); Concentration at 90% Inhibition St ([12]; Table 4b, 48 hours): D (“D” provided a compound concentration of >50 ppm at 90% inhibition of fungal pathogens); IC90 ([12]; Table 4a, 48 hours): > 50 µg/mL |
| COCCO[C@@H](Cn1c(=O)n(C(C)(C)C(=O)NC2CCCCC2)c(=O)c2c(C)c(-n3cccn3)sc21)c1cc(F)ccc1OC [Compound I-46, (R)—N-cyclohexyl-2-(1-(2-(5-fluoro-2-methoxyphenyl)-2-(2-methoxyethoxy)ethyl)-5-methyl-2,4-dioxo-6-(1H-pyrazol-1-yl)-1,4-dihydrothieno[2,3-d]pyrimidin-3(2H)-yl)-2-methylpropanamide] | > 40 |  |  |  |  | 10 (≈ 15.6 µM) |  | > 50 |  | > 50 |  |  |  | > 50 | 0.6 to 3 |  |  | MIC ([2]; ATCC90028, 48 h): > 4.1 µg/mL; MIC ([3]; ATCC6258, 48 h): > 4.1 µg/mL; MIC ([4]; ATCC22019, 48 h): > 4.1 µg/mL; IC90 [8]: 2 µg/mL (≈ 3.12 µM); IC90 [9, 19]: > 50 µg/mL; IC90 ([10]; 48 h, Table 4b): > 50 µg/mL; IC90 ([12]; 48 h, Table 4b): > 50 µg/mL |
| COCCO[C@@H](Cn1c(=O)n(C(C)(C)C(=O)NC2CCC2)c(=O)c2c(C)c(-n3cccn3)sc21)c1cc(F)ccc1OC [Compound I-47, (R)—N-cyclobutyl-2-(1-(2-(5-fluoro-2-methoxyphenyl)-2-(2-methoxyethoxy)ethyl)-5-methyl-2,4-dioxo-6-(1H-pyrazol-1-yl)-1,4-dihydrothieno[2,3-d]pyrimidin-3(2H)-yl)-2-methylpropanamide] | 10 to 40 | 0.25 to 1 (≈ 0.407 to 1.63 µM) | 0.25 to 1 (≈ 0.407 to 1.63 µM) | 0.25 to 1 (≈ 0.407 to 1.63 µM) |  | 2 (≈ 3.26 µM) |  | 10 (≈ 16.3 µM) |  | > 50 | 0.4 (≈ 0.652 µM) | 2 (≈ 3.26 µM) |  | > 50 | 0.6 to 3 | > 50 | > 50 |  |
| COCCO[C@@H](Cn1c(=O)n([C@H](C)C(=O)N2CCCC2)c(=O)c2c(C)c(-n3cccn3)sc21)c1cc(F)ccc1OC [Compound I-76, 1-((R)-2-(5-fluoro-2-methoxyphenyl)-2-(2-methoxyethoxy)ethyl)-5-methyl-3-((R)-1-oxo-1-(pyrrolidin-1-yl)propan-2-yl)-6-(1H-pyrazol-1-yl)thieno[2,3-d]pyrimidine-2,4(1H,3H)-dione] | > 40 | > 4.1 | > 4.1 | > 4.1 |  | > 50 |  | > 50 |  | > 50 | 2 (≈ 3.34 µM) | > 50 |  | > 50 | 3 to 10 | > 50 | > 50 |  |
| COc1ccc(F)cc1[C@H](Cn1c(=O)n(C(C)(C)C(N)=O)c(=O)c2c(C)c(-n3cccn3)sc21)OCCC#N [Compound I-77, (R)-2-(1-(2-(2-cyanoethoxy)-2-(5-fluoro-2-methoxyphenyl)ethyl)-5-methyl-2,4-dioxo-6-(1H-pyrazol-1-yl)-1,4-dihydrothieno[2,3-d]pyrimidin-3(2H)-yl)-2-methylpropanamide] | > 40 | > 4.1 | > 4.1 | > 4.1 |  | > 50 |  | > 50 |  | > 50 | 2 (≈ 3.61 µM) | 10 (≈ 18 µM) |  | > 50 | 0.6 to 3 | > 50 | > 50 |  |
| COc1ccc(F)cc1[C@H](Cn1c(=O)n(C(C)(C)C(=O)N2CCCC2)c(=O)c2c(C)c(-n3cccn3)sc21)OCCC#N [Compound I-81, (R)-3-(1-(5-fluoro-2-methoxyphenyl)-2-(5-methyl-3-(2-methyl-1-oxo-1-(pyrrolidin-1-yl)propan-2-yl)-2,4-dioxo-6-(1H-pyrazol-1-yl)-3,4-dihydrothieno[2,3-d]pyrimidin-(2H)-yl)ethoxy)propanenitrile] | 3 to 10 | > 4.1 | > 4.1 | > 4.1 |  | 0.4 (≈ 0.657 µM) |  | 2 (≈ 3.29 µM) |  | 2 (≈ 3.29 µM) | 0.08 (≈ 0.131 µM) | 0.4 (≈ 0.657 µM) |  | 0.08 (≈ 0.131 µM) | 0.6 to 3 | > 50 | > 50 |  |
